Data set [1] relates to HIV-1BAL strain in M type macrophage (M-MΦ) derived from human monocytes. The experiment in a line: Proliferation of HIV-1 in M-MΦ: p24 protein in culture supernatant by sandwich ELISA. The format is cell-based. To be noted: for suppression of viral generation (p24 in culture supernatant) in M-MΦ: 30 μM, HIV-1BAL, 14 days of culture, compared with DMSO control (FIG. 13); for viral proliferation at 300 μM in M-MΦ: also observed in DMSO control, ascribed to cytotoxicity of DMSO; for concentration dependence of suppressive action on HIV-1BAL in M-MΦ: various concentrations (FIG. 16). The protocol: (§1) Macrophages derived from monocytes were prepared by culturing the recovered monocytes in the presence of M-CSF (macrophage colony-stimulating factor) (10^4 U/ml, provided by Morinaga Milk Co.), granulocytes and granulocyte-macrophage colony-stimulating factor, GM-CSF) (500 U/ml, provided by Japan Scheling Plough Co., Osaka, or purchased from R & S Genzyme-TECHNE Inc.) with RPMI1640 medium added with FCS10% (Nissui Seiyaku Co., Tokyo) for 7–8 days.
(§2) The macrophage prepared by differential induction of M-CSF from human monocytes is designated as M type macrophage (M type MΦ or M-MΦ) and the macrophage prepared by differential induction of GM-CSF from human monocytes is designated as GM type macrophage (GM type MΦ or GM-MΦ) Further, alveolar macrophage (alveolar MΦ or A-MΦ) was prepared as follows. Cells in the alveolar lavage liquid obtained from the alveolar lavage of healthy volunteers were recovered, suspended and adhered to plastics, then the non-adhered cells were washed out and the remained adhered cells were designated as the alveolar MΦ.
(§3) Infection of HIV-1 to macrophage was performed as follows. Macrophage directed viral strains, HIV-1JR-FL and HIV-1BAL, were infected for 2 hours in contact with M-MΦ, GM-MΦ and A-MΦ (adjusted to 2.5×10^5/well, Flacon No3043: Becton Dickinson Labware, Inc. U.S.)at low concentration (p24 antigen titer 50 ng/ml, TCID50=3000/ml virus to final concentration at 100 pg/ml), and non-adsorbed virus to the macrophage was washed out, and cultured with adding fresh medium. In case of the medium with M-MΦ, M-CSF was added (10^4 U/ml), and that of the medium with GM-MΦ, GM-CSF was added (500 U/ml).
(§4) Proliferation of virus was examined with the released viral particles in the culture supernatant after the infection by the sandwich ELISA using two types of anti-p24 antibody (Nu24 and 10B5^13). The following JAM62 and JAM65 were used as LTR (HIV long terminal repeat)-gap gene primer. The following JAM63 and JAM 64 were used as the internal primer for the nested PCR. • JAM62: • 5′-[…]-3′ (SEQ ID NO: 1) • JAM65: • 5′-[…]-3′ (SEQ ID NO: 2) • JAM63: • 5′-GTGTOACTCTGGTAACTAGAGATCC-3′ (SEQ ID NO: 3) • JAM64: • 5′-[…]-3′ (SEQ ID NO: 4) (1-4) Assay of Expression of Tyrosine Kinase Hck Protein and Transcription Factor C/EBPβ Protein
(§5) In order to show growth suppression effect of the present invention, among macrolide derivatives, EM, EM201, EM202, EM703, CAM, EM722, EM730, EM732, EM736, EM734, EM735, EM747, EM748, EM743, EM746, EM750 or EM751 was dissolved in DMSO with each 100 mM concentration, and used in dilution with the medium thereafter. A control group was M-MΦ treated only with DMSO used for dissolving macrolide derivatives.
(§6) M-MΦ and GM-M Φ were subjected to contact infection with HIV-1BAL strain for 2 hours, added 30 μM of EM, EM201, EM202, EM703, CAM,EM722, EM730, EM732, EM736, EM734, EM735, EM747, EM748, EM743, EM746, EM750 or EM751, incubated for 14 days and amount of p24 protein in the cultured supernatant was assayed in the time-dependent manner.

In data set [2] the test system is HIV-1BAL strain in GM type macrophage (GM-MΦ) derived from human monocytes. The experiment in a line: Proliferation of HIV-1 in GM-MΦ: p24 protein in culture supernatant by sandwich ELISA. Type of data set: cell-based. To be noted: for viral generation in GM-MΦ: 30 μM, HIV-1BAL, all assay points up to 14 days, similar to DMSO control (FIG. 14). The protocol: as §1, §2, §3, §4, §5, §6
A general note: An ELISA detects its analyte on a solid surface through an enzyme-linked reagent.

In the next data set the test system is ERK1/2. Briefly: Tyrosine phosphorylation (activation) of ERK1/2 in HIV-1 infected M-MΦ by Western blotting. Type of data set: cell-based, human. The note with it: 30 μM, HIV-1BAL infected M-MΦ, compared with DMSO (FIG. 19(B)). The procedure:
(§7) P38MAPK and ERK1/2 activation were determined using P38MAPK antibody, anti-ERK1/2 antibody, anti-tyrosine phosphorylation P38MAPK antibody and anti-tyrosine phosphorylation ERK1/2 antibody (New England Biolabs, Inc. U.S.), and phosphorylation reaction of these molecules was determined by Western blotting.
In any groups, total amount of ERK1/2 (total sum of phosphorylated and non-phosphorylated p38MARK) was equal [refer to FIG. 19(B)].

For another data set, the system named is p38MAPK. The experiment in a line: Tyrosine phosphorylation (activation) of p38MAPK in HIV-1 infected M-MΦ by Western blotting. The format is cell-based, human. The note with it: 30 μM, day 2 of culture, HIV-1BAL infected M-MΦ, compared with DMSO (FIG. 19(A)). The procedure: as §7
Thirty μM of EM, EM201, EM202, EM703 or CAM were added to M-MΦ infected with HIV-1BAL strain, tyrosine phosphorylation of p38MAPK was detected on day 2 of the culture by Western blotting. […] In any groups, total amount of p38MAPK (total sum of phosphorylated and non-phosphorylated p38MARK) was equal.
(In western blotting, separated proteins are transferred to a membrane and probed.)

Data set [3] relates to HIV-1BAL strain infected M-MΦ. The experiment in a line: Cytopathy (MGC formation) of HIV-1 infected M-MΦ. Type of data set: cell-based, human. To be noted: 30 μM, HIV-1BAL (FIG. 17). The procedure: Formation of cell cluster and cell fusion was observed from the 2nd day of the incubation only in virus producing M-MΦ and formation of multinucleatic giant cells were recognized from the culture day 4–7 [refer to FIG. 2(A)]. On the other hand, in GM-MΦ without generation of virus, nomorphological changes were observed [refer to FIG. 2(B)].
M-MΦ was subjected to contact infection with HIV-1BAL strain for 2 hours, added 30 μM of EM, EM201, EM202, EM703 or CAM, incubated and observed the cell morphology.

Data set [4] relates to tyrosine kinase Hck protein. The experiment in a line: Expression of tyrosine kinase Hck protein in M-MΦ by Western blotting. The format is cell-based, human. To be noted: 30 μM, day 2 after HIV-1BAL infection, compared with DMSO control (FIG. 18). The source says: (§8) Expression of tyrosine kinase Hck protein and transcription factor C/EBPβ protein in macrophage was examined after solubilizing the macrophage in SDS-PAGE sample buffer, performing 10% SDS-polyacrylamide electrophoresis, transferring the protein on the gel to immobilon P membrane (Millipore Inc. U.S.) and checking antibodies against these proteins by Western blotting. Antibody to tyrosine kinase Hck protein (N-30) and antibody to C/EBPβ (C-19) were purchased from Santacluse Inc. (U.S.). Western blotting was detected by Amersham ELC Regent (Amersham International plc, Buckinghamshire, UK). Strength of bands was expressed by PSL (photostimulating luminescence) value (A/mm^2).
(§9) These probes were dissolved in the serum free RPMI1640 medium, in which lipofectin (Life Technology Inc., U.S.) was dissolved at 5 μM concentration, at room temperature for 30 minutes, added with RPMI1640 medium, which contains 10% FCS, to the macrophage (final concentration 2 μM) and incubated at 37° C. for 24 hours. Thereafter, cells were washed with the medium, added the RPMI1640 medium containing 10% FCS without oligonucleotide, further cultured for 24 hours, and then infected with HIV-1.
Consequently, M-MΦ was subjected to contact infection with HIV-1BAL strain for 2 hours, added 30 μM of EM, EM201, EM202, EM703 or CAM, incubated and expression of tyrosine kinase Hck protein was observed on day 2 after the infection by Western blotting.

The test system of data set [5] is transcription factor C/EBPβ protein. Briefly: Expression of C/EBPβ protein in GM-MΦ by Western blotting. Type of data set: cell-based, human. To be noted: oligonucleotide treated GM-MΦ (FIG. 11).
Source text: as §8, §9

As for `CCC(O)C(C)(O)C1OC(=O)C(C)C(OC2CC(C)(OC)C(O)C(C)O2)C(C)C(OC2OC(C)CC(NC)C2O)C2(C)CC(C)=C(O2)C1C` (stereo not shown) [EM703, de(3′-N-methyl)-8,9-anhydro-pseudoerythromycin A 6,9-hemiketal], the “proliferation of virus in M-MΦ at 3 μM” value in data set [1] (3 μM) was “inhibited almost completely the proliferation of virus”. In data set [1], the “suppression of viral generation (p24 in culture supernatant) in M-MΦ” value is recorded as “almost no p24 was detected”, the “viral proliferation at 300 μM in M-MΦ” value is reported as “viral proliferation at 300 μM was observed” and the “concentration dependence of suppressive action on HIV-1BAL in M-MΦ” value is listed as “concentration dependent manner”. Also, the “viral generation in GM-MΦ” value in data set [2] is listed as “almost no viral generation was recognized”. In addition, the “tyrosine phosphorylation of ERK1/2” value with ERK1/2 is “promotion of tyrosine phosphorylation of ERK1/2 was recognized”. Also, the “tyrosine phosphorylation of p38MAPK” value in the data set with p38MAPK is “significantly decreased”. The “cytopathic effect (MGC formation) in HIV-1 infected M-MΦ” value in data set [3] is given as “no cytopathic effect such as MCG formation was observed”. Besides, in data set [4], the “expression of tyrosine kinase Hck protein in HIV-1 infected M-MΦ” value is given as “strongly suppressed”.

As to `CCC1OC(=O)C(C)C(O[C@H]2C[C@@](C)(OC)[C@@H](O)[C@H](C)O2)C(C)C(O[C@@H]2O[C@H](C)C[C@H](N(C)C)[C@H]2O)C(C)(O)CC(C)C(=O)C(C)C(O)C1(C)O` (stereo partly shown) [EM, reference compound], in data set [1], the “suppression of viral generation (p24 in culture supernatant) in M-MΦ” value is on record as “suppression of viral generation was recognized, though not so strong”; the “viral proliferation at 300 μM in M-MΦ” value is given as “viral proliferation at 300 μM was observed”; the “concentration dependence of suppressive action on HIV-1BAL in M-MΦ” value is listed as “exhibited suppression of viral production depending upon drug concentration”. In addition, the “viral generation in GM-MΦ” value in data set [2] is listed as “almost no viral generation was recognized”. Further, in the data set on ERK1/2, the “tyrosine phosphorylation of ERK1/2” value is listed as “weakly recognized as same in the control group”. Further, in the data set on p38MAPK, the “tyrosine phosphorylation of p38MAPK” value is reported as “recognized to decrease, though not so strong”. Besides, in data set [3], the “cytopathic effect (MGC formation) in HIV-1 infected M-MΦ” value is given as “formation of MGC was slightly recognized”. For the same compound, the “expression of tyrosine kinase Hck protein in HIV-1 infected M-MΦ” value in data set [4] is “the suppression of tyrosine kinase Hck protein was observed, though not so strong”.

Turning to “C/EBPβ-S: Phosphorothioate-modified sense oligonucleotide probe of C/EBPβ, 5′-CCGCGTTCATOCAACOCCTG-3′ (SEQ ID NO: 9) (sense CCGCGTTCATGCAACGCCTG; all phosphorothioate, sugars by position and methylation of C not given here) [reference compound]”, the “HIV-1 growth promotion (p24 in culture supernatant) in oligonucleotide pretreated GM-MΦ” value in data set [2] (HIV-1 infection after pretreatment (FIG. 12)) was “not recognized”. Moreover, the “changes in expression of C/EBPβ in GM-MΦ” value in data set [5] is “not recognized”.

Values taken from patent US7034005B2, “Use of agent for suppressing infection and proliferation of human immunodeficiency syndrome virus” (The Kitasato Institute, priority 2002, dated 2006).
